Measured values published in PubChem BioAssay AID330 (DTP/NCI, 2004).
Values joined by “and” are separate entries in the source; they are usually repeats but may differ in a detail not shown here. Identical values can stand only once. Inconclusive results and toxic doses are left out. The calls were made as follows: active = survival T/C of 150% or more; inactive = T/C below 125% in these data.

Test system: P388 leukemia ip, CD2F1 mice, survival T/C
Assay: NCI In Vivo Anticancer Drug Screen. Data for tumor model P388 Leukemia (intraperitoneal) in CD2F1 (CDF1) mice
Conditions: endpoint: median survival time, higher = longer survival
How it was run: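 Mice carrying the transplanted tumor received test compound or vehicle. Survival was recorded in each group, and the value is the treated-group measurement divided by that of the vehicle-treated control group.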

[1] = dose: 12.5 mg/kg/injection, schedule: Q01DX005 (ip), vehicle: Klucel (hydroxypropylcellulose) (HPC)
[2] = dose: 25.0 mg/kg/injection, schedule: Q01DX005 (ip), vehicle: Klucel (hydroxypropylcellulose) (HPC)
[3] = dose: 50.0 mg/kg/injection, schedule: Q01DX005 (ip), vehicle: Klucel (hydroxypropylcellulose) (HPC)
[4] = dose: 100.0 mg/kg/injection, schedule: Q01DX005 (ip), vehicle: Klucel (hydroxypropylcellulose) (HPC)
[5] = dose: 50.0 mg/kg/injection, schedule: Q01DX009 (ip), vehicle: Klucel (hydroxypropylcellulose) (HPC)
[6] = dose: 50.0 mg/kg/injection, schedule: Q01DX009 (ip), vehicle: saline with Tween-80
[7] = dose: 200.0 mg/kg/injection, schedule: Q01DX009 (ip), vehicle: Klucel (hydroxypropylcellulose) (HPC)
[8] = dose: 100.0 mg/kg/injection, schedule: Q01DX009 (ip), vehicle: Klucel (hydroxypropylcellulose) (HPC)
[9] = dose: 60.0 mg/kg/injection, schedule: Q01DX005 (ip), vehicle: saline
[10] = dose: 120.0 mg/kg/injection, schedule: Q01DX005 (ip), vehicle: saline
[11] = dose: 240.0 mg/kg/injection, schedule: Q01DX005 (ip), vehicle: saline
[12] = dose: 50.0 mg/kg/injection, schedule: Q01DX005 (ip), vehicle: saline with Tween-80
[13] = dose: 100.0 mg/kg/injection, schedule: Q01DX005 (ip), vehicle: saline with Tween-80
[14] = dose: 100.0 mg/kg/injection, schedule: Q01DX009 (ip), vehicle: saline with Tween-80
[15] = dose: 200.0 mg/kg/injection, schedule: Q01DX009 (ip), vehicle: saline with Tween-80
[16] = dose: 12.5 mg/kg/injection, schedule: Q04DX002 (ip), vehicle: saline
[17] = dose: 25.0 mg/kg/injection, schedule: Q04DX002 (ip), vehicle: saline
[18] = dose: 100.0 mg/kg/injection, schedule: Q01DX001 (ip), vehicle: saline with Tween-80
[19] = dose: 200.0 mg/kg/injection, schedule: Q01DX001 (ip), vehicle: saline with Tween-80
[20] = dose: 400.0 mg/kg/injection, schedule: Q01DX001 (ip), vehicle: saline with Tween-80
[21] = dose: 100.0 mg/kg/injection, schedule: Q01DX009 (ip), vehicle: saline
[22] = dose: 100.0 mg/kg/injection, schedule: Q04DX003 (ip), vehicle: saline
[23] = dose: 200.0 mg/kg/injection, schedule: Q01DX009 (ip), vehicle: saline
[24] = dose: 25.0 mg/kg/injection, schedule: Q01DX009 (ip), vehicle: saline
[25] = dose: 50.0 mg/kg/injection, schedule: Q01DX009 (ip), vehicle: saline

Measured: T/C

Cc1cc2ccc(OC(=O)c3ccc(N=C(N)N)cc3)cc2oc1=O
inactive: dose: 100.0 mg/kg/injection, schedule: Q04DX003 (ip), vehicle: saline with Tween-80 100 % of control | dose: 200.0 mg/kg/injection, schedule: Q04DX003 (ip), vehicle: saline with Tween-80 91 % of control | dose: 400.0 mg/kg/injection, schedule: Q04DX003 (ip), vehicle: saline with Tween-80 87 % of control

COc1cc2c(cc1OC)-c1c(oc3c(CCC(C)C)c(O)ccc3c1=O)CO2
inactive: dose: 6.25 mg/kg/injection, schedule: Q01DX005 (ip), vehicle: Klucel (hydroxypropylcellulose) (HPC) 99 % of control | [1] 92 % of control and 94 % of control | [2] 88 % of control and 94 % of control | [3] 86 % of control | [4] 86 % of control

CC(C)(C)N=C(CCN1CCN(CCC(=NC(C)(C)C)Nc2ccc([N+](=O)[O-])cc2)CC1)Nc1ccc([N+](=O)[O-])cc1
inactive: dose: 12.5 mg/kg/injection, schedule: Q01DX009 (ip), vehicle: saline with Tween-80 92 % of control | dose: 25.0 mg/kg/injection, schedule: Q01DX009 (ip), vehicle: saline with Tween-80 96 % of control | [5] 87 % of control | [6] 91 % of control | [7] 93 % of control

CN1C(=O)N(CCCl)C(=O)C(C)(C2=CCCCC2)C1=O (centres undefined)
inactive: [5] 92 % of control | [8] 92 % of control | [7] 90 % of control

O=c1n(-c2ccccc2)c(=O)n2n1CC(c1ccccc1)=N2
inactive: dose: 100.0 mg/kg/injection, schedule: Q01DX009 (ip), vehicle: other 99 % of control | dose: 200.0 mg/kg/injection, schedule: Q01DX009 (ip), vehicle: other 91 % of control | dose: 400.0 mg/kg/injection, schedule: Q01DX009 (ip), vehicle: other 89 % of control

Cc1ccc(S(=O)(=O)N(C)C2c3ccccc3Oc3ccccc32)cc1
inactive: dose: 12.5 mg/kg/injection, schedule: Q01DX009 (ip), vehicle: Klucel (hydroxypropylcellulose) (HPC) 106 % of control | dose: 25.0 mg/kg/injection, schedule: Q01DX009 (ip), vehicle: Klucel (hydroxypropylcellulose) (HPC) 106 % of control | [5] 106 % of control and 87 % of control | [8] 91 % of control | [7] 92 % of control | dose: 400.0 mg/kg/injection, schedule: Q01DX009 (ip), vehicle: Klucel (hydroxypropylcellulose) (HPC) 92 % of control

CCCCC(NC(=O)C(CCCC)NC(=O)OCc1ccccc1)C(=O)O (centres undefined)
inactive: [3] 108 % of control | [4] 93 % of control | dose: 200.0 mg/kg/injection, schedule: Q01DX005 (ip), vehicle: Klucel (hydroxypropylcellulose) (HPC) 95 % of control

COC(=O)C1(C(C)C(=O)c2ccccc2)NC(=S)NC(=O)C1C#N (centres undefined)
inactive: [9] 88 % of control | [10] 98 % of control | [11] 100 % of control

S=c1nc[nH]c2c1ncn2C1C=CC=CC=C1
inactive: [12] 110 % of control | [13] 106 % of control

O=C1CCCC1(c1ccccc1)c1ccccc1
inactive: [14] 90 % of control | [15] 95 % of control | dose: 400.0 mg/kg/injection, schedule: Q01DX009 (ip), vehicle: saline with Tween-80 95 % of control

C[n+]1c2ccccc2nc2c(N)cc(N)cc21
inactive: dose: 31.3 mg/kg/injection, schedule: Q04DX003 (ip), vehicle: saline sonified 104 % of control | dose: 83.0 mg/kg/injection, schedule: Q04DX003 (ip), vehicle: saline with Tween-80 113 % of control | dose: 125.0 mg/kg/injection, schedule: Q04DX003 (ip), vehicle: saline with Tween-80 122 % of control | dose: 188.0 mg/kg/injection, schedule: Q04DX003 (ip), vehicle: saline with Tween-80 100 % of control

CCC(C1SC(=S)NC1=O)C1SC(=S)NC1=O (centres undefined)
inactive: [12] 92 % of control | [13] 97 % of control

CCN1N=Nc2ccccc2C1O (centres undefined)
inactive: [16] 98 % of control | [17] 98 % of control | dose: 50.0 mg/kg/injection, schedule: Q04DX002 (ip), vehicle: saline 100 % of control

CC[N+](C)(C)c1ccccc1
inactive: dose: 6.25 mg/kg/injection, schedule: Q04DX002 (ip), vehicle: saline 102 % of control | [16] 105 % of control | [17] 99 % of control and 102 % of control

CCN(CC)C(=O)c1ccncc1C(=O)c1ccncc1
inactive: [9] 94 % of control | [10] 100 % of control | [11] 100 % of control

COc1cc(OC)c2c(=O)cc(-c3ccccc3)sc2c1
inactive: [18] 100 % of control | [19] 94 % of control | [20] 95 % of control

CC(C)CCCC(C)C1CCC2C3CCC4N(CCCl)CCCC4(C)C3CCC12C (centres undefined)
inactive: dose: 25.0 mg/kg/injection, schedule: Q01DX001 (ip), vehicle: saline 100 % of control | dose: 50.0 mg/kg/injection, schedule: Q01DX001 (ip), vehicle: saline 99 % of control | dose: 100.0 mg/kg/injection, schedule: Q01DX001 (ip), vehicle: saline 94 % of control

CCOc1ccc(C(/C(Cl)=N/O)C(Cl)(Cl)Cl)cc1 (centres undefined)
inactive: [1] 96 % of control | [2] 91 % of control | [3] 100 % of control

CCOCc1cnc(C)nc1N
inactive: [6] 110 % of control | [14] 120 % of control | [15] 110 % of control

Cc1ccc2nc(CC(O)(c3ccccc3)c3ccccc3)ccc2c1
inactive: [6] 110 % of control | [14] 95 % of control | [15] 94 % of control

C/C(=N\NC(=S)Nc1ccc(N(C)C)cc1)c1ccccn1
inactive: [6] 118 % of control | [14] 105 % of control

O=C(O)c1cccc(C(=O)O)c1Sc1c(C(=O)O)cccc1C(=O)O
inactive: [18] 99 % of control | [19] 95 % of control | [20] 91 % of control

CSC(=S)/N=c1\c(C)cccn1C
inactive: dose: 25.0 mg/kg/injection, schedule: Q04DX002 (ip), vehicle: saline with Tween-80 98 % of control | dose: 50.0 mg/kg/injection, schedule: Q04DX002 (ip), vehicle: saline with Tween-80 100 % of control | dose: 100.0 mg/kg/injection, schedule: Q04DX002 (ip), vehicle: saline with Tween-80 102 % of control

O=C1CSC(=O)N1c1cccc(C(F)(F)F)c1
inactive: [6] 104 % of control | [14] 97 % of control

O=C(O)COc1c2occc2cc2ccc(=O)oc12
inactive: dose: 60.0 mg/kg/injection, schedule: Q01DX005 (ip), vehicle: saline with Tween-80 97 % of control | dose: 120.0 mg/kg/injection, schedule: Q01DX005 (ip), vehicle: saline with Tween-80 96 % of control | dose: 240.0 mg/kg/injection, schedule: Q01DX005 (ip), vehicle: saline with Tween-80 100 % of control

CCOCCC(O)CC (centres undefined)
inactive: [21] 90 % of control | [22] 122 % of control | [23] 95 % of control | dose: 200.0 mg/kg/injection, schedule: Q04DX003 (ip), vehicle: saline 104 % of control | dose: 400.0 mg/kg/injection, schedule: Q01DX009 (ip), vehicle: saline 104 % of control

COC(=O)C1CCCCC1C(=O)OC (centres undefined)
inactive: dose: 12.5 mg/kg/injection, schedule: Q01DX009 (ip), vehicle: saline 108 % of control | [24] 104 % of control and 111 % of control | [25] 104 % of control | [21] 100 % of control and 101 % of control (2×) | [23] 110 % of control

CCC[CH2][Sn](=[S])[CH2]CCC
inactive: dose: 1.56 mg/kg/injection, schedule: Q01DX009 (ip), vehicle: other 116 % of control

C#CCSc1ncnc2nc[nH]c12
inactive: [24] 95 % of control | dose: 25.0 mg/kg/injection, schedule: Q04DX003 (ip), vehicle: saline 104 % of control | [25] 109 % of control | dose: 50.0 mg/kg/injection, schedule: Q04DX003 (ip), vehicle: saline 100 % of control | [21] 86 % of control | [22] 100 % of control

CC(=O)Nc1ccc(Nc2cc(S(=O)(=O)O)c(N)c3c2C(=O)c2ccccc2C3=O)cc1
inactive: [9] 92 % of control | [10] 95 % of control | [11] 92 % of control
